This note sets out measurements from PubChem BioAssay (NCI).

Several values for one entry are separate records, joined by “and”; a condition that tells them apart may be missing. Identical values can stand only once.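 Method: 48-hour compound exposure of cells in 96-well plates, five concentrations, linear interpolation of endpoints. Abbreviation: GI50, concentration required for 50% inhibition of growth. TGI is the concentration that stops growth completely.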 Some results are limits rather than exact numbers.

Among the test systems are 786-0 renal; KM12 colon; SR leukemia; T-47D breast; MDA-MB-435; MOLT-4 leukemia; NCI-H522 lung; LOX IMVI melanoma; HS 578T breast; MALME-3M melanoma.
Common to all, as to experiment: NCI anticancer screen, dose series, 48 h

Regarding `CC(=O)NC1=C(OS(=O)(=O)c2ccc(C)cc2)CN(C)C1=O`, the TGI was 16.5 µM in the test with 786-0 renal; 14.3 µM with KM12 colon; more than 100 µM in the test with SR leukemia; 9.35 µM in the test with T-47D breast; 16.7 µM in the test with MDA-MB-435; 17.9 µM with MOLT-4 leukemia. Moreover, the TGI in the test with NCI-H522 lung is 9.74 µM; in the test on LOX IMVI melanoma it was 17.5 µM; with HS 578T breast it was more than 42.2 µM; with MALME-3M melanoma, 6.21 µM.
Regarding `O=C(C1CCCCC1)[C@@H]1[C@]2(C(=O)NC3CCCCC32)[C@@H]2CCCN2[C@@]12C(=O)NC1CCC(Cl)CC12` (some centres undefined), the GI50 in the test on 786-0 renal was 151 µM; with KM12 colon, 130 µM; with SR leukemia, 30.8 µM; with T-47D breast it was 107 µM; with MDA-MB-435, 112 µM; in the test with MOLT-4 leukemia it was 32.2 µM. Further, the GI50 is 120 µM with NCI-H522 lung, 103 µM with LOX IMVI melanoma, 153 µM in the test on HS 578T breast and 132 µM in the test on MALME-3M melanoma. Also, the TGI stood at 319 µM with 786-0 renal; 273 µM in the test on KM12 colon; 124 µM in the test with SR leukemia; 279 µM in the test with T-47D breast; 245 µM with MDA-MB-435; 213 µM in the test on MOLT-4 leukemia. Further, the TGI in the test on NCI-H522 lung was determined as 281 µM; in the test on LOX IMVI melanoma, 253 µM; with HS 578T breast, 422 µM; with MALME-3M melanoma, 330 µM.
For the compound `O=C1C(=O)c2c(nc3ccc(Cl)cn23)-c2ccccc21`, the GI50 in the test on 786-0 renal is 0.775 µM; in the test on KM12 colon it was 1.78 µM; in the test with SR leukemia, 0.348 µM; with T-47D breast, 0.394 µM; with MDA-MB-435 it was 0.183 µM; in the test with MOLT-4 leukemia, 0.308 µM. Also, the GI50 in the test with NCI-H522 lung is 0.668 µM; in the test on LOX IMVI melanoma, 0.216 µM; in the test on HS 578T breast it was 0.239 µM; in the test with MALME-3M melanoma, 0.171 µM. The TGI was found to be 1.82 µM with 786-0 renal; 3.89 µM in the test on KM12 colon; 1.44 µM in the test with SR leukemia; 1.6 µM with T-47D breast; 0.35 µM in the test on MDA-MB-435; 2 µM in the test on NCI-H522 lung. Further, the TGI was found to be 0.498 µM in the test on LOX IMVI melanoma, 0.74 µM in the test with HS 578T breast and 0.368 µM in the test with MALME-3M melanoma.
For the compound `O[C@H]1CO[C@H]2[C@@H]1OC[C@@H]2Oc1ccc(Nc2ccnc(Nc3ccc(O[C@H]4CO[C@H]5[C@@H]4OC[C@@H]5O)c(Cl)c3)n2)cc1Cl`, the GI50 is 2.98 µM in the test on 786-0 renal; 1.36 µM in the test on KM12 colon; 2.28 µM in the test with SR leukemia; 0.456 µM with T-47D breast; 2.31 µM with MDA-MB-435; 1.72 µM in the test on MOLT-4 leukemia. For the same compound, the GI50 was 1.17 µM in the test on NCI-H522 lung, 1.26 µM in the test on LOX IMVI melanoma, 1.29 µM in the test on HS 578T breast and 1.09 µM in the test on MALME-3M melanoma. Also, the TGI worked out at 15.1 µM in the test on 786-0 renal; 3.48 µM with KM12 colon; 15.3 µM in the test with SR leukemia; 2.89 µM in the test with T-47D breast; 10 µM in the test with MDA-MB-435; 6.04 µM in the test with MOLT-4 leukemia. The TGI was 3.69 µM with NCI-H522 lung, 3.18 µM in the test with LOX IMVI melanoma, 4.8 µM in the test on HS 578T breast and 3.09 µM in the test with MALME-3M melanoma.
In the case of `O=C(O)C/C=C/CC(=O)O`, the TGI in the test with 786-0 renal, in the test on KM12 colon, in the test with SR leukemia, with T-47D breast, in the test with MDA-MB-435 and in the test on MOLT-4 leukemia was more than 100 µM in each case. Further, the TGI in the test on NCI-H522 lung, with LOX IMVI melanoma, in the test on HS 578T breast and in the test with MALME-3M melanoma was more than 100 µM in each case.
Regarding `CNC(=O)OCc1c(COC(=O)NC)c(C)n(-c2ccc(Br)cc2)c1C`, the TGI in the test on 786-0 renal was 27.8 µM; in the test on KM12 colon, 30.8 µM; in the test on SR leukemia, more than 100 µM; with T-47D breast, 54.9 µM; with MDA-MB-435 it was 34 µM; with MOLT-4 leukemia, more than 100 µM. Also, the TGI stood at 25.9 µM in the test with NCI-H522 lung, 23.9 µM in the test with LOX IMVI melanoma, 33.5 µM in the test with HS 578T breast and 36.3 µM in the test on MALME-3M melanoma.
As for `Cc1ccc(C(=O)Nc2cccc(C(F)(F)F)c2)cc1Nc1nc(-c2cccnc2)nc2c1cnn2C`, the GI50 in the test with 786-0 renal is 2.67 µM and 1.64 µM; with KM12 colon, 2.62 µM and 0.686 µM; in the test on SR leukemia it was 0.822 µM; in the test on T-47D breast, 3.44 µM and 1.86 µM; in the test on MDA-MB-435, 1.64 µM and 1.45 µM; in the test on MOLT-4 leukemia, 1.78 µM and 0.886 µM. Also, the GI50 with NCI-H522 lung is 4.68 µM and 1.37 µM; in the test with LOX IMVI melanoma it was 1.4 µM and 0.704 µM; with HS 578T breast, 1.94 µM and 1.41 µM; with MALME-3M melanoma, 0.482 µM and 0.262 µM. Besides, the TGI in the test on 786-0 renal was 8.01 µM and 5.12 µM; in the test on KM12 colon, 17.2 µM and 8.28 µM; in the test with SR leukemia, 6.58 µM; in the test on T-47D breast, 16.3 µM and 8.72 µM; with MDA-MB-435, 4.74 µM and 4.95 µM; in the test with MOLT-4 leukemia, 11 µM and > 10 µM. In addition, the TGI in the test with NCI-H522 lung was 27.3 µM and 5.09 µM; in the test with LOX IMVI melanoma, 3.72 µM and 2.61 µM; with HS 578T breast, 7.14 µM and 4.91 µM; in the test on MALME-3M melanoma, 2.77 µM and 1.5 µM.
As to `C[C@]12CC[C@H]3[C@@H](CCC4=CC(=O)CC[C@@H]43)[C@@H]1CC[C@@H]2OC(=O)CCc1ccccc1`, the GI50 in the test with 786-0 renal is 23.9 µM; with KM12 colon, 19.8 µM; in the test with SR leukemia, 11.2 µM; in the test on T-47D breast it was 21.8 µM; with MDA-MB-435 it was 24.5 µM; in the test with MOLT-4 leukemia it was 17.5 µM. In addition, the GI50 was 19.4 µM in the test with NCI-H522 lung, 15.6 µM in the test with LOX IMVI melanoma, 4 µM with HS 578T breast and 17 µM in the test on MALME-3M melanoma. For the same compound, the TGI in the test on 786-0 renal is 50.8 µM; in the test on KM12 colon, 43 µM; in the test with SR leukemia, more than 53.4 µM; in the test with T-47D breast it was 66.6 µM; in the test with MDA-MB-435, more than 80.2 µM; in the test on MOLT-4 leukemia, 49.6 µM. The TGI in the test on NCI-H522 lung worked out at 41.7 µM; in the test on LOX IMVI melanoma, 29.1 µM; in the test with HS 578T breast, 21.8 µM; with MALME-3M melanoma it was 34.4 µM.
As to `N=C(N)c1ccc(N2CCCN(c3ccc(C(=N)N)cc3)CC2)cc1`, the GI50 in the test with 786-0 renal is more than 100 µM; in the test on KM12 colon, 62.1 µM; in the test with SR leukemia it was more than 100 µM; with T-47D breast, 22.6 µM; with MDA-MB-435, more than 100 µM; in the test on MOLT-4 leukemia, more than 100 µM. For the same compound, the GI50 in the test on NCI-H522 lung is 81.9 µM; with LOX IMVI melanoma it was 56.1 µM; in the test on HS 578T breast it was 32.4 µM; in the test on MALME-3M melanoma it was 39.6 µM. Also, the TGI in the test with 786-0 renal was more than 100 µM; in the test with KM12 colon it was more than 100 µM; in the test on SR leukemia it was more than 100 µM; with T-47D breast, 81 µM; in the test on MDA-MB-435, more than 100 µM; in the test with MOLT-4 leukemia it was more than 100 µM. For the same compound, the TGI in the test on NCI-H522 lung was more than 100 µM; with LOX IMVI melanoma, more than 100 µM; in the test on HS 578T breast, 96.9 µM; with MALME-3M melanoma it was more than 100 µM.
